In PMC8933034, “6-Amino-2,4,5-trimethylpyridin-3-ol and 2-amino-4,6-dimethylpyrimidin-5-ol derivatives as selective fibroblast growth factor receptor 4 inhibitors: design, synthesis, molecular docking, and anti-hepatocellular carcinoma efficacy evaluation” (Journal of Enzyme Inhibition and Medicinal Chemistry, 2022):
Values joined by “and” are separate entries in the source; they are usually repeats but may differ in a detail not shown here. Equal entries are not always repeated.

How the values were obtained:
human FGFR4 kinase = molecular target: T1, human FGFR4 kinase (Homo sapiens, UniProt P22455); test: FGFR4 kinase assay (Kinase HotSpot, Reaction Biology Corp.); format: biochemical; conditions: for inhibition at 1 µM: fixed concentration 1 μM, mean of two independent experiments; for inhibition at 0.01 µM: 0.01 μM concentration, two independent experiments
T1 construct: purchased Reaction Biology Corporation (Malvern, PA, USA), contract assay service
T1 sequence (P22455 22-802): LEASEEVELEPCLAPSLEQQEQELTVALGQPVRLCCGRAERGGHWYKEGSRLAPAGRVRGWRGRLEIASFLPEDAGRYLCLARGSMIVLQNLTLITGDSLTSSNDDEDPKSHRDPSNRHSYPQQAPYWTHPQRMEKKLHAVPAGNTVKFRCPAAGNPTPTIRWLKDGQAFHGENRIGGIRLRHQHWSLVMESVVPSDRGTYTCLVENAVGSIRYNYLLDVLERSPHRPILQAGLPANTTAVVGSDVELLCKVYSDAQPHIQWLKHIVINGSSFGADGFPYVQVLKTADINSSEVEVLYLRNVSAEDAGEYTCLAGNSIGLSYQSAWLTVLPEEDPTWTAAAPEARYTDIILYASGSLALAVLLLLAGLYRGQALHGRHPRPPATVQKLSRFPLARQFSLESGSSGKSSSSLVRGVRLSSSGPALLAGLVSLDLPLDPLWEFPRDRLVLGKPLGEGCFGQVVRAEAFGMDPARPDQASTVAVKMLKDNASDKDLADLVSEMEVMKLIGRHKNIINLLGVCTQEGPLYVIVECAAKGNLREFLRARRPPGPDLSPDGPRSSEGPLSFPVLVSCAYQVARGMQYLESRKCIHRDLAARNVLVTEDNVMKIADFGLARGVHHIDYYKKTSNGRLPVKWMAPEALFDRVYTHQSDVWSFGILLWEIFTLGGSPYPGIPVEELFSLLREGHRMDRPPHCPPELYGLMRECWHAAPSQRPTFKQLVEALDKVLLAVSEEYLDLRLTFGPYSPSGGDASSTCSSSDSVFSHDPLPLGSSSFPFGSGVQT
Procedure: A FGFR4 kinase assay was performed at the Reaction Biology Corporation (Malvern, PA, USA) using a Kinase HotSpotSM assay platform (www.reactionbiology.com, last accessed at 19/10/2020). Briefly, human FGFR4 kinase (5–10 mU), peptide substrate, and poly[Glu:Tyr] (4:1) 0.2 mg/ml were prepared in a reaction buffer with a final volume of 25 µL. The compounds were delivered into the reaction, followed ∼20 min. later by the addition of a mixture of ATP and [γ-^33P-ATP] (specific activity approx. 500 cpm/pmol, concentration as required) to a final concentration of 10 µM. After incubation for 40 min. at 25 °C, the reaction was stopped by the addition of a 3% phosphoric acid solution. Then, the reaction was spotted onto a P30 filtermat, and unbound phosphate was removed by washing 3 times for 5 min in 75 mM phosphoric acid and once in methanol prior to drying and scintillation counting. […] IC50 values and curve fits were obtained using GraphPad Prism 5 software.

FGFR1 = molecular target: T2, FGFR1 (Homo sapiens, UniProt P11362); test: FGFR1 ADP-glow kinase assay; format: biochemical
T2 construct: purchased Promega, WI, USA
T2 sequence (P11362 22-822): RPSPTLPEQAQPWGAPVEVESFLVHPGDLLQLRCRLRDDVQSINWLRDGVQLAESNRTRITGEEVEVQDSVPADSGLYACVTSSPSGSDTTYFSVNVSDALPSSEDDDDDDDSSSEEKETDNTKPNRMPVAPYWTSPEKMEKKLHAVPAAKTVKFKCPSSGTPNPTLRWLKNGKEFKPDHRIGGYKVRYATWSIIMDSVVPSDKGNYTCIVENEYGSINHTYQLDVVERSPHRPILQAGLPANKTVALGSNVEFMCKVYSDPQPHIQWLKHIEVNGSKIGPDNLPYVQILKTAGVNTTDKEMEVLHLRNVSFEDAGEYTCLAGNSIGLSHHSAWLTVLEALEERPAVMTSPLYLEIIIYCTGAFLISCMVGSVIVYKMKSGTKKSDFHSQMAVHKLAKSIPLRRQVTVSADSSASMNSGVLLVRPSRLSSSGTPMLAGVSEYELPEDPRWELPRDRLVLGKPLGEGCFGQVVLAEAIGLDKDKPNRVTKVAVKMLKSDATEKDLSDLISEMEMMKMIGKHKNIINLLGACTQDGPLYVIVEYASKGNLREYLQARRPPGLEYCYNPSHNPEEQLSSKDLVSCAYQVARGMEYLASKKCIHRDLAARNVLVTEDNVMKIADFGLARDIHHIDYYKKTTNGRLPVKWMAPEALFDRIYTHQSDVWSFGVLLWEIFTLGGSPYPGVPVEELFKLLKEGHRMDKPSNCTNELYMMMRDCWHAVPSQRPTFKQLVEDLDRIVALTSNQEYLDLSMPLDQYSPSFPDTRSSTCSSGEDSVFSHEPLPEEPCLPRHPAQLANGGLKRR
Procedure: (§1) FGFR1 ∼ 3 kinase assays were performed using the adenosine diphosphate (ADP)-glow kinase assay kit of FGFR1, FGFR2, and FGFR3 kinase enzyme systems (Promega, WI, USA) in accordance with the manufacturer’s instructions. […] The reaction was carried out at 25 °C for 1 h in a total volume of 25 µL. Subsequently, 25 µL of ADP-Glow reagent was added to the mixture, and then incubated for 40 min at 25 °C. After the addition of 50 µL of ADP detection reagents for 30 min at 25 °C, luminescence was measured using a Fluostar Omega microplate reader (BMG LABTECH GmbH, Ortenberg, Germany).

FGFR2 = molecular target: T3, FGFR2 (Homo sapiens, UniProt P21802); test: FGFR2 ADP-glow kinase assay; format: biochemical
T3 construct: purchased Promega, WI, USA
T3 sequence (P21802 22-821): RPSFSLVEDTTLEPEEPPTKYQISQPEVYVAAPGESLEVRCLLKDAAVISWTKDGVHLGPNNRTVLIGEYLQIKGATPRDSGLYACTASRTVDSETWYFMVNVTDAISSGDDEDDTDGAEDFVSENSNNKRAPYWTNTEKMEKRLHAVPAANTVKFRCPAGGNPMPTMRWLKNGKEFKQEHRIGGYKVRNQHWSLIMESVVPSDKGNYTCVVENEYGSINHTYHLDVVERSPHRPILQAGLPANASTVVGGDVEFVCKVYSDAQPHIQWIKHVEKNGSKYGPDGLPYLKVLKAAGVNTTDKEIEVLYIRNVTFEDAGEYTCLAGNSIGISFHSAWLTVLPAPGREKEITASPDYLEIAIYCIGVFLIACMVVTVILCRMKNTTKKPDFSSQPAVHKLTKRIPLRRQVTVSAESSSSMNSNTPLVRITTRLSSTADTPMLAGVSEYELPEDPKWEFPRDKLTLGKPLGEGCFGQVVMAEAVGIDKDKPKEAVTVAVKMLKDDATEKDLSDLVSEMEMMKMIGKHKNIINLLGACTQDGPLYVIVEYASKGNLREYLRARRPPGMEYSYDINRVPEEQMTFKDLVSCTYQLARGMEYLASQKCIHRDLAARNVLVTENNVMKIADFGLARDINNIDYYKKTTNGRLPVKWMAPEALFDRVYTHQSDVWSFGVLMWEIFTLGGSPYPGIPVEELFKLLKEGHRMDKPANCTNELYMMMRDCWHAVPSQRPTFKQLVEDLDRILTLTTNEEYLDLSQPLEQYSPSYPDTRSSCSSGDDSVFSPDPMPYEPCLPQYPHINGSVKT
Procedure: as §1

FGFR3 = molecular target: T4, FGFR3 (Homo sapiens, UniProt P22607); test: FGFR3 ADP-glow kinase assay; format: biochemical
T4 construct: purchased Promega, WI, USA
T4 sequence (P22607 23-806): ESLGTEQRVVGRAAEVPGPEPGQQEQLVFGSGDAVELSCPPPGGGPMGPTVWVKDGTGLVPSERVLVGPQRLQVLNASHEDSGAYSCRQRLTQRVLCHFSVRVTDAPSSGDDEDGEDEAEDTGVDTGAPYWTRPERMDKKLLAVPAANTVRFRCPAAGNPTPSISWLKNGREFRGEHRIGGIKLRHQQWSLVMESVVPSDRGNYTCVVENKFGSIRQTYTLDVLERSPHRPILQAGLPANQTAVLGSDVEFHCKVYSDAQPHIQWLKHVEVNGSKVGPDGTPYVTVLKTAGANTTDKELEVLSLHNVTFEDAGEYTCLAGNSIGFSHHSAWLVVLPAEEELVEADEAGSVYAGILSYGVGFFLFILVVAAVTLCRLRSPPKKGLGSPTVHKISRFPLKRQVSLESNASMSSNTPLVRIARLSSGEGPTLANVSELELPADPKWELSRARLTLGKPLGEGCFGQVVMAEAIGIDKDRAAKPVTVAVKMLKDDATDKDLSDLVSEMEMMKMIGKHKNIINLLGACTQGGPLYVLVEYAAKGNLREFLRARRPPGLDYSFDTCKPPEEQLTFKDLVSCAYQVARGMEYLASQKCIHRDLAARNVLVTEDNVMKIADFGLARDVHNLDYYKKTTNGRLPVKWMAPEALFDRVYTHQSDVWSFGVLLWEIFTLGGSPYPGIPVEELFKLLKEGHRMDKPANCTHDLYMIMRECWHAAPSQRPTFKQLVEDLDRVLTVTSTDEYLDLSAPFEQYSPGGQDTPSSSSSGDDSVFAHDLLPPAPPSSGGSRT
Procedure: as §1

Hep3B cells = test: Cell proliferation assay (MTT), Hep3B; format: cell-based, human; conditions: for IC50: Homo sapiens, Hep3B, 48 h treatment, mean ± SEM of three independent experiments
Procedure: (§2) Human HCC cell lines, Hep3B and Huh7 were obtained from American Type Culture Collection (ATCC, Manassas, VA, USA). An H6c7 human normal pancreatic duct epithelial cell line was purchased from Kerafast (Boston, MA, USA). Hep3B and Huh7 cells were cultured in Dulbecco′s Modified Eagle′s Medium (DMEM) (Hyclone, Logan, UT, USA). The media were supplemented with 10% foetal bovine serum (FBS) (Gibco/ThermoFisher Scientific) and 1% penicillin/streptomycin (Gibco/ThermoFisher Scientific). H6c7 cells were maintained in a keratinocyte serum-free medium supplemented with a recombinant […] growth factor (rEGF) and bovine pituitary extract (Gibco/ThermoFisher Scientific). All the cells were incubated at 37 °C under a 5% CO2 atmosphere.
(§3) Cells were seeded at a density of 5000 cells/well in a 96-well plate. After overnight incubation, the cells were serum-starved using 1% FBS for 24 h. The next day, the cells were pre-treated with the different concentrations (0.1, 1, 3, 10, 30, 100 µM) of drugs for 1 h prior to the treatment with serum (10% FBS). After 48 h of incubation, 3–(4,5-dimethylthiazol-2-yl)-2,5-diphenyltetrazolium bromide (MTT) dye solution was added and incubated for 4 h. Next, DMSO was added, and after 30 min, the colour intensities were measured using a microplate reader (Versamax, Molecular Devices, Inc., USA) at 490 nm.

Huh7 cells = test: Cell proliferation assay (MTT), Huh7; format: cell-based, human; conditions: for IC50: Homo sapiens, Huh-7, 48 h treatment, mean ± SEM of three independent experiments; for difference of anti-proliferative activity between Hep3B and Huh7: Huh7 versus Hep3B, 48 h
Procedure: as §2, §3

[1] = Cytotoxicity assay (MTT), H6c7; format: cell-based; conditions: human, H6c7 normal pancreatic duct epithelial cells, 48 h treatment, mean ± SEM of three independent experiments, read-out: IC50 on cell viability (cytotoxicity), H6c7
Procedure: as §2
The cytotoxicity of the compounds was assessed by measuring the cell viability decrease using the MTT staining method. Briefly, H6c7 cells were seeded in a 96-well plate (Falcon, USA) at a density of 4 × 10^4 cells per well in keratinocyte serum-free medium. After 24 h, Cells were incubated with different concentrations (0.1, 1, 3, 10, 30, and 100) µM of each compound for 48 h, and the cell viability was measured using MTT assay. Optical density was measured at 540 nm using a microplate reader (BMG LABTECH).

[2] = tested on: Hep3B-xenografted CAM tumour model; test: CAM (chick chorioallantoic membrane) tumour model implanted with Hep3B cells; format: in vivo
Procedure: Fertile chicken eggs were purchased from Byeolbichon Farm (Gyeongbuk, South Korea) and incubated at 37 °C and under 55% relative humidity. On the 9th day of egg incubation (post-fertilization), false air sac was generated on the relatively flat side of eggs by a negative pressure technique. A small window (1 cm^2) was created on the false air sac surface of the eggs by separating the shell and membrane beneath (technique) using a grinding wheel (Dremel, Racine, WI, USA). Next, Hep3B cells were loaded at a density of 1.5 × 10^6 cells/CAM with or without compound. After four days of drug treatment, the tumour weight, number of vessel branch points within the tumour region were analysed.

| Compound | inhibition at 1 µM (human FGFR4 kinase) [%] | other results |
| --- | --- | --- |
| C=CC(=O)Nc1cn(C)nc1Nc1nc(C)c(OCc2c(Cl)c(OC)cc(OC)c2Cl)c(C)n1 [Compound 6D] | 8 |  |
| C=CC(=O)Nc1cc(F)cc(Cl)c1Nc1nc(C)c(OCc2c(Cl)c(OC)cc(OC)c2Cl)c(C)n1 [Compound 6P] | 12.8 |  |
| C=CC(=O)Nc1cn(C)nc1Nc1nc(C)c(OCc2c(F)c(OC)cc(OC)c2F)c(C)n1 [Compound 6C] | 22 |  |
| C=CC(=O)Nc1ccc(N2CCN(CC)CC2)cc1Nc1nc(C)c(OCc2c(Cl)c(OC)cc(OC)c2Cl)c(C)n1 [Compound 6BB] | 5.4 |  |
| C=CC(=O)Nc1cn(C)nc1Nc1nc(C)c(OCc2c(F)c(OC)cc(OC)c2F)c(C)c1C [Compound 6A] | 62.8 | IC50 (human FGFR4 kinase; 7 different concentrations, three independent experiments): 190 nM; Ratio against FGFR4 (FGFR1) (FGFR1; ratio of FGFR1 to FGFR4 inhibitory activity): 8.2; IC50 (FGFR1; three independent experiments): 1560 nM and 1570 nM; Ratio against FGFR4 (FGFR2) (FGFR2; ratio of FGFR2 to FGFR4 inhibitory activity): 6.0; IC50 (FGFR2; three independent experiments): 1150 nM; Ratio against FGFR4 (FGFR3) (FGFR3; ratio of FGFR3 to FGFR4 inhibitory activity): 1.5; IC50 (FGFR3; three independent experiments): 277 nM; fold less potent than compound 1, Hep3B IC50 (Hep3B cells; 48 h): 28 fold; IC50 (Hep3B cells): 25200 nM; IC50 (Huh7 cells): 21300 ± 6000 nM; difference of anti-proliferative activity between Hep3B and Huh7 (Huh7 cells): did not show a significant difference; IC50 at 48 h [1]: > 100000 nM |
| C=CC(=O)Nc1cccc(C)c1Nc1ncc(OCc2c(F)c(OC)cc(OC)c2F)cn1 [Compound 42, reference compound] |  | inhibition at 0.01 µM (human FGFR4 kinase): 87.4% |
| C=CC(=O)Nc1cccc(C)c1Nc1ncc2cc(-c3c(Cl)c(OC)cc(OC)c3Cl)ccc2n1 [Compound 1, reference compound] |  | IC50 (Hep3B cells): 900 ± 100 nM; IC50 (Huh7 cells): 7100 ± 5000 nM; difference of anti-proliferative activity between Hep3B and Huh7 (Huh7 cells): 7 fold; IC50 at 48 h [1]: 13400 nM; tumour growth ([2]; four days after Hep3B xenograft on CAM): dose-dependently inhibited; tumour-induced angiogenesis ([2]; number of new vessel branches on CAM, four days): significantly blocked |
| C=CC(=O)Nc1ccc(N2CCN(CC)CC2)cc1Nc1nc(C)c(OCc2c(F)c(OC)cc(OC)c2F)c(C)n1 [Compound 6AA] | 10.3 |  |
| C=CC(=O)Nc1cccc(OC)c1Nc1nc(C)c(OCc2c(F)c(OC)cc(OC)c2F)c(C)n1 [Compound 6S] | 49.3 |  |
| C=CC(=O)Nc1ccc(N2CCN(CC)CC2)cc1Nc1nc(C)c(OCc2c(F)c(OC)cc(OC)c2F)c(C)c1C [Compound 6Y] | 10.4 |  |
| C=CC(=O)Nc1ccc(OC)cc1Nc1nc(C)c(OCc2c(F)c(OC)cc(OC)c2F)c(C)n1 [Compound 6W] | 12.2 |  |
| C=CC(=O)Nc1ccc(Nc2nc(C)c(OCc3c(F)c(OC)cc(OC)c3F)c(C)n2)c(C)c1 [Compound 6K] | 4.9 |  |
| C=CC(=O)Nc1cccc(C)c1Nc1ccc(OCc2c(F)c(OC)cc(OC)c2F)cn1 [Compound 41, reference compound] |  | inhibition at 0.01 µM (human FGFR4 kinase): 91% |

The next lines start with results.

| inhibition at 1 µM (human FGFR4 kinase) [%] | Compound | other results |
| --- | --- | --- |
| 6.3 | C=CC(=O)Nc1ccc(OC)cc1Nc1nc(C)c(OCc2c(Cl)c(OC)cc(OC)c2Cl)c(C)n1 [Compound 6X] |  |
| 7.2 | C=CC(=O)Nc1cccc(C)c1Nc1nc(C)c(OCc2c(F)c(OC)cc(OC)c2F)c(C)c1C [Compound 6E] | inhibition at 0.01 µM (human FGFR4 kinase): 5% |
| 16.9 | C=CC(=O)Nc1cn(C)nc1Nc1nc(C)c(OCc2c(Cl)c(OC)cc(OC)c2Cl)c(C)c1C [Compound 6B] |  |
| 14 | C=CC(=O)Nc1cccc(C)c1Nc1nc(C)c(OCc2c(Cl)c(OC)cc(OC)c2Cl)c(C)n1 [Compound 6H] |  |
| 24.8 | C=CC(=O)Nc1cccc(C)c1Nc1nc(C)c(OCc2c(F)c(OC)cc(OC)c2F)c(C)n1 [Compound 6G] | inhibition at 0.01 µM (human FGFR4 kinase): 3.3% |
| 10.1 | C=CC(=O)Nc1ccc(OC)cc1Nc1nc(C)c(OCc2c(F)c(OC)cc(OC)c2F)c(C)c1C [Compound 6U] |  |
| 9.7 | C=CC(=O)Nc1ccc(Nc2nc(C)c(OCc3c(F)c(OC)cc(OC)c3F)c(C)c2C)c(C)c1 [Compound 6I] |  |
| 2.7 | C=CC(=O)Nc1ccc(N2CCN(CC)CC2)cc1Nc1nc(C)c(OCc2c(Cl)c(OC)cc(OC)c2Cl)c(C)c1C [Compound 6Z] |  |
| 7.7 | C=CC(=O)Nc1ccc(OC)cc1Nc1nc(C)c(OCc2c(Cl)c(OC)cc(OC)c2Cl)c(C)c1C [Compound 6V] |  |
| 11 | C=CC(=O)Nc1cccc(OC)c1Nc1nc(C)c(OCc2c(Cl)c(OC)cc(OC)c2Cl)c(C)n1 [Compound 6T] |  |
| 6.9 | C=CC(=O)Nc1cccc(OC)c1Nc1nc(C)c(OCc2c(Cl)c(OC)cc(OC)c2Cl)c(C)c1C [Compound 6R] |  |
| 5.4 | C=CC(=O)Nc1cccc(C)c1Nc1nc(C)c(OCc2c(Cl)c(OC)cc(OC)c2Cl)c(C)c1C [Compound 6F] |  |
| 10.3 | C=CC(=O)Nc1cccc(OC)c1Nc1nc(C)c(OCc2c(F)c(OC)cc(OC)c2F)c(C)c1C [Compound 6Q] |  |
| 11.9 | C=CC(=O)Nc1cc(F)cc(Cl)c1Nc1nc(C)c(OCc2c(Cl)c(OC)cc(OC)c2Cl)c(C)c1C [Compound 6N] |  |
| 3.6 | C=CC(=O)Nc1ccc(Nc2nc(C)c(OCc3c(Cl)c(OC)cc(OC)c3Cl)c(C)n2)c(C)c1 [Compound 6L] |  |
| 9.9 | C=CC(=O)Nc1cc(F)cc(Cl)c1Nc1nc(C)c(OCc2c(F)c(OC)cc(OC)c2F)c(C)c1C [Compound 6M] |  |
| 5.9 | C=CC(=O)Nc1ccc(Nc2nc(C)c(OCc3c(Cl)c(OC)cc(OC)c3Cl)c(C)c2C)c(C)c1 [Compound 6J] |  |
